From US20180265463A1, “Vitamin D3 Derivatives and Pharmaceutical Use Thereof” (Kyoto University, priority 2014, published 2018)
Where “and” joins values, the source holds several entries; their conditions need not be identical. Identical values can stand only once. Entries after “also recorded” stand apart in the source; their conditions may differ.

Key:
Assay type in all cases: cell-based, Chinese hamster
[1] = system: SREBP-2 fragment fused to PLAP (PLAP-BP2513-1141); assay: PLAP-BP assay (secreted alkaline phosphatase reporter of SREBP translocation and processing); conditions: VD derivatives 10 μM, 20 h, CHO-K1 co-transfected with PLAP-BP2 and SCAP; average of two experiments
SREBP-2 = assay: Western-blot analysis of SREBP-2 in CHO-K1 cells; conditions: 5 μM, 18 h, CHO-K1 cells (FIG. 3)
Procedure: CHO-K1 cells were treated with DMSO alone or each molecule (5 μM) for 18 h. The levels of precursor and mature forms of SREBP-2 were analyzed by Western-blot. Western-blots of actin are shown in lower panel as a loading control.
CHO-K1 cells were treated with DMSO alone or each molecule (5 μM) for 16 h. The levels of precursor and mature forms of SREBP-2 were analyzed by Western-blot. Western-blots of actin are shown in lower panel as a loading control.
(§1) On day 0, CHO-K1 cells were added to 6-well plates at 3.0×10^5 cells per well in medium A. On day 1, the cells were washed with PBS, and then incubated in medium B in the absence or presence of specific test compounds (5 μM). After 16 h of incubation, the cells were washed three times with cold PBS, and lysed with a buffer A (50 mM Tris-HCl (pH 7.5), 150 mM NaCl, 1% (v/v) Nonidet P40, 0.5% (w/v) sodium deoxycholate, 8 M urea, and protease inhibitor cocktail (Nacalai)). The cell lysate were passed 16 times through a 25 G needle and centrifuged at 7,000 g at 4° C. for 10 min. The supernatants were transferred to new tubes, and the pellets were extracted with a buffer A. The resulting buffer was centrifuged at 7,000 g at 4° C. for 10 min, and the supernatants were combined to the previous ones. The resulting lysate was mixed with 0.20 volume of 6×SDS sample buffer (Nacalai) and incubated at room temperature for 30 min. The samples were separated on a 10% SDS-PAGE gel and blotted, using mouse monoclonal antibodies against SREBP-2 (IgG-7D4), SCAP (IgG-9D5), c-Myc (IgG1-MC045), and actin (AC-40). The specific bands were visualized using enhanced chemiluminescence (ECL Prime Western Blotting Detection Reagent, GE Healthcare) on an ImageQuant LAS 500 (GE Healthcare).

SCAP [2] = assay: Western-blot analysis of SCAP levels and ubiquitination in CHO-K1 cells
Procedure: (§2) After incubation for the indicated time, the levels of SCAP and precursor and mature forms of SREBP-2 were analyzed by Western-blot. Western-blots of actin are shown in lower panel as a loading control.
(§3) CHO-K1 cells were treated with DMSO alone or 25(OH)D (5 μM) in the presence or absence of MG-132 (10 μM) for 5 h. The levels of Myc-SCAP were analyzed by Western-blot. Western-blots of actin are shown in lower panel as a loading control.
(§4) CHO-K1 cells were treated with DMSO alone (−) or 25(OH)D (5 μM, +). After 2 h incubation, each dish received MG-132 (10 μM). Following incubation for 2 h, cells were harvested and subjected to immunoprecipitation with monoclonal anti-c-Myc-conjugated agarose beads. The ubiquitination of SCAP was analyzed by Western-blot.
as §1

SCAP [3] = target: T1, SCAP (Cricetulus griseus, UniProt P97260); assay: as above; conditions: 5 μM, CHO-K1 cells, different times (FIG. 4)
T1 construct: endogenous in cells; host or cells: CHO-K1
T1 sequence (P97260 1-1276): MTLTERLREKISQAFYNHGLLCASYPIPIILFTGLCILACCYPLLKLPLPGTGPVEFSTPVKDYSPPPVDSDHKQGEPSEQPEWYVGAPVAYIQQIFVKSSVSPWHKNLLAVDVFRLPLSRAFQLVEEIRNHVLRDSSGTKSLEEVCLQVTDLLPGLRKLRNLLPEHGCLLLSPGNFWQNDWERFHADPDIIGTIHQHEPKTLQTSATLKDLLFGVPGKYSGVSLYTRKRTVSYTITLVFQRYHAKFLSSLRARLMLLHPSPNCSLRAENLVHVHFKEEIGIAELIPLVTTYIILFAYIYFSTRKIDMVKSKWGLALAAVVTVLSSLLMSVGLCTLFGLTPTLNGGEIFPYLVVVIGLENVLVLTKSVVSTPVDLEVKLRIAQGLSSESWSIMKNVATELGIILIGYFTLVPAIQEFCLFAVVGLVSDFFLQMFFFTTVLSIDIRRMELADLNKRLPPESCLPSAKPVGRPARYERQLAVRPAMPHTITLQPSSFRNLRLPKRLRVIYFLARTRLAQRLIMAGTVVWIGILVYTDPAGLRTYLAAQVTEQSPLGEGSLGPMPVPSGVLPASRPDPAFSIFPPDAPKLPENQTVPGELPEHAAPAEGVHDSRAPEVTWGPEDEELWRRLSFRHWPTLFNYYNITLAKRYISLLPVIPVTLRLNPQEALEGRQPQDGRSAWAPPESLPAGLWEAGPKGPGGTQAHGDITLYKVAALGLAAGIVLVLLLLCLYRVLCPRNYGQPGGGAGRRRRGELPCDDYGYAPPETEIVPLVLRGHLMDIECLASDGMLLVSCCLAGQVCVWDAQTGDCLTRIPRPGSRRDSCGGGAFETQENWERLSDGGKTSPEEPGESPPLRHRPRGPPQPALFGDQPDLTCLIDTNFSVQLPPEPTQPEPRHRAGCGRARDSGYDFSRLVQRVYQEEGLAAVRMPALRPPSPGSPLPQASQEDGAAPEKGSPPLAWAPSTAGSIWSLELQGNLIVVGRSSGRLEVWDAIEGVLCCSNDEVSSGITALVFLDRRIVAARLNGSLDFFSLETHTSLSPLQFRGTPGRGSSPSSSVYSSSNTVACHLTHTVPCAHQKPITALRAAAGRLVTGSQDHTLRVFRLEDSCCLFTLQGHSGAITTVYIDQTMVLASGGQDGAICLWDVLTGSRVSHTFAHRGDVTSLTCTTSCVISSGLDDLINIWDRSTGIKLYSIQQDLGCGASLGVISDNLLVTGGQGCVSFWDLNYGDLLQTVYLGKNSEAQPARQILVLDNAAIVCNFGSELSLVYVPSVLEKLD
Procedure: as §2, §3, §4, §1

SREBP = assay: SRE-driven luciferase reporter assay of SREBP activation; conditions: luciferase reporter in CHO-K1 cells, lipid-depleted medium, 20-24 h, normalized to β-galactosidase; averages of three independent experiments; read-out: IC50 (μM), inhibitory effect on the activation of SREBP
Procedure: The transfected cells were treated with DMSO alone, sterols (10 μg/mL cholesterol and 1.0 μg/mL 25-HC), or varied concentrations of 25(OH)D in a medium containing lipid-free serum. Luciferase activity was measured after 20 h incubation, and the data were normalized to β-galactosidase activity. Values are the mean±SD of three independent experiments.
The molecules in a chemical library which consists of 280 endogenous lipid related molecules were screened for their ability to inhibit the expression of a luciferase reporter gene. In this gene, three repeats of sterol regulatory elements (SREs) control expression of luciferase. Lipid depletion activates SREBPs, which bind to the SRE domain and work as transcription factors to express luciferase. The SREBP-responsive reporter construct was co-transfected into Chinese hamster ovary K1 (CHO-K1) cells, along with a control β-galactosidase (β-gal) reporter gene. A constitutively active actin promoter in the reporter gene drives the expression of β-gal. The levels of luciferase expression from the SREBP-responsive reporter gene were normalized to the levels of β-gal expression.
CHO-K1 cells were maintained in a medium A (1:1 mixture of Ham's F-12 medium and Dulbecco's modified Eagle medium, supplemented with 100 units/mL penicillin, 100 μg/mL streptomycin sulfate, and 5% (v/v) fetal bovine serum) at 37° C. under humidified 5% CO2.
On day 0, CHO-K1 cells were added to 96-well plates at 1.0×10^4 cells per well in medium A. On day 1, the cells were co-transfected with an SRE-1-driven luciferase reporter construct (pSRE-Luc) and pAc-β-gal at a 20/1 ratio, using FuGENE(Registered trademark) HD transfection reagent (Promega), according to the manufacturer's protocol. After 8-12 h of incubation, the cells were washed with PBS buffer, then incubated in medium B containing the specific test compounds. […] After 20-24 h of incubation, the cells in each well were lysed by freeze-thaw with Reporter Lysis Buffer (Promega), and aliquots were used to measure luciferase and β-galactosidase activities. Luciferase activity was measured using the Steady-Glo(Registered trademark) Luciferase Assay System (Promega), and β-galactosidase activity was measured using the β-galactosidase Enzyme Assay System (Promega). Luciferase activity was normalized to β-galactosidase activity.

Q: What does the source list for `C=C1CC[C@H](O)C/C1=C/C=C1\CCC[C@]2(C)[C@@H]([C@H](C)CCCC(C)(C)O)CC[C@@H]12` [25(OH)D, 25-hydroxyvitamin D3]?
A: secretion of PLAP [1]: inhibited the secretion of PLAP to a greater extent than sterol; also recorded: caused a greater decrease in PLAP secretion than did cholesterol; level of mature form of SREBP (SREBP-2): decreased; level of precursor form of SREBP (SREBP-2): decreased; ubiquitination of SCAP (SCAP [2]; 5 μM, 2 h then MG-132 10 μM for 2 h, immunoprecipitation (FIG. 6)): accelerated; decrease in the levels of SCAP (Myc-SCAP) on addition of MG-132 (SCAP [2]; 25(OH)D 5 μM with MG-132 10 μM, 5 h (FIG. 5)): cancelled; levels of SCAP (SCAP [3]): reduced; IC50 (SREBP): 1 µM and 1.09 µM
